Reference: ChEMBL document CHEMBL5058645, “Data for DCP probe JNJ-6204” (2022)

Columns and labels:
[1] = biological target: Tyrosine-protein kinase Lck (Homo sapiens) (UniProt P06239); test: Lck(h) activated Kinase panel; settings: Compound concentration 1.0 uM, tested as the 2H-labelled form
[2] = biological target: [Pyruvate dehydrogenase (acetyl-transferring)] kinase isozyme 4, mitochondrial (Homo sapiens) (UniProt Q16654); test: PDHK4(h) Kinase panel; settings: Compound concentration 1.0 uM, tested as the 2H-labelled form
[3] = biological target: Cyclin-dependent kinase 17 (Homo sapiens) (UniProt Q00537); test: CDK17/cyclinY(h) Kinase panel; settings: Compound concentration 1.0 uM, tested as the 2H-labelled form
[4] = biological target: 5'-AMP-activated protein kinase catalytic subunit alpha-1 (Homo sapiens) (UniProt Q13131); test: AMPKalpha1(h) Kinase panel; settings: Compound concentration 1.0 uM, tested as the 2H-labelled form
[5] = biological target: Serine/threonine-protein kinase DCLK1 (Homo sapiens) (UniProt O15075); test: DCAMKL1(h) Kinase panel; settings: Compound concentration 1.0 uM, tested as the 2H-labelled form
[6] = biological target: Dual specificity tyrosine-phosphorylation-regulated kinase 1A (Homo sapiens) (UniProt Q13627); test: DYRK1A(h) Kinase panel; settings: Compound concentration 1.0 uM, tested as the 2H-labelled form
[7] = biological target: Serine/threonine-protein kinase SIK2 (Homo sapiens) (UniProt Q9H0K1); test: SIK2(h) Kinase panel; settings: Compound concentration 1.0 uM, tested as the 2H-labelled form
[8] = biological target: AP2-associated protein kinase 1 (Homo sapiens) (UniProt Q2M2I8); test: AAK1(h) Kinase panel; settings: Compound concentration 1.0 uM, tested as the 2H-labelled form
[9] = biological target: Serine/threonine-protein kinase Sgk1 (Homo sapiens) (UniProt O00141); test: SGK(h) Kinase panel; settings: Compound concentration 1.0 uM, tested as the 2H-labelled form
[10] = biological target: Ribosomal protein S6 kinase alpha-3 (Homo sapiens) (UniProt P51812); test: Rsk2(h) Kinase panel; settings: Compound concentration 1.0 uM, tested as the 2H-labelled form
[11] = biological target: Phosphatidylinositol 4,5-bisphosphate 3-kinase catalytic subunit beta isoform (Homo sapiens) (UniProt P42338); test: PI3 Kinase (p110b/p85a)(h) Kinase panel; settings: Compound concentration 1.0 uM, tested as the 2H-labelled form
[12] = biological target: Serine/threonine-protein kinase 32C (Homo sapiens) (UniProt Q86UX6); test: STK32C(h) Kinase panel; settings: Compound concentration 1.0 uM, tested as the 2H-labelled form
[13] = biological target: Cyclin-dependent kinase 9 (Homo sapiens) (UniProt P50750); test: CDK9/cyclin T1(h) Kinase panel; settings: Compound concentration 1.0 uM, tested as the 2H-labelled form
[14] = biological target: Serine/threonine-protein kinase WNK3 (Homo sapiens) (UniProt Q9BYP7); test: WNK3(h) Kinase panel; settings: Compound concentration 1.0 uM, tested as the 2H-labelled form
[15] = biological target: Serine/threonine-protein kinase 3 (Homo sapiens) (UniProt Q13188); test: MST2(h) Kinase panel; settings: Compound concentration 1.0 uM, tested as the 2H-labelled form
[16] = biological target: Serine/threonine-protein kinase PLK3 (Homo sapiens) (UniProt Q9H4B4); test: Plk3(h) Kinase panel; settings: Compound concentration 1.0 uM, tested as the 2H-labelled form
[17] = biological target: Tyrosine-protein kinase JAK3 (Homo sapiens) (UniProt P52333); test: JAK3(h) Kinase panel; settings: Compound concentration 1.0 uM, tested as the 2H-labelled form
[18] = biological target: MAP/microtubule affinity-regulating kinase 4 (Homo sapiens) (UniProt Q96L34); test: MARK4(h) Kinase panel; settings: Compound concentration 1.0 uM, tested as the 2H-labelled form
[19] = biological target: Protein kinase C beta type (Homo sapiens) (UniProt P05771); test: PKCbetaII (h) Kinase panel; settings: Compound concentration 1.0 uM, tested as the 2H-labelled form
[20] = biological target: Serine/threonine-protein kinase D2 (Homo sapiens) (UniProt Q9BZL6); test: PKD2(h) Kinase panel; settings: Compound concentration 1.0 uM, tested as the 2H-labelled form
[21] = biological target: Serine/threonine-protein kinase D3 (Homo sapiens) (UniProt O94806); test: PKD3(h) Kinase panel; settings: Compound concentration 1.0 uM, tested as the 2H-labelled form
[22] = biological target: Serine/threonine-protein kinase PLK4 (Homo sapiens) (UniProt O00444); test: Plk4(h) Kinase panel; settings: Compound concentration 1.0 uM, tested as the 2H-labelled form
[23] = biological target: Mitogen-activated protein kinase 12 (Homo sapiens) (UniProt P53778); test: SAPK3(h) Kinase panel; settings: Compound concentration 1.0 uM, tested as the 2H-labelled form
[24] = biological target: G protein-coupled receptor kinase 3 (Homo sapiens) (UniProt P35626); test: GRK3(h) Kinase panel; settings: Compound concentration 1.0 uM, tested as the 2H-labelled form
[25] = biological target: Phosphatidylinositol 4,5-bisphosphate 3-kinase catalytic subunit alpha isoform (Homo sapiens) (UniProt P42336); test: PI3 Kinase (p110a/p85a)(h) Kinase panel; settings: Compound concentration 1.0 uM, tested as the 2H-labelled form
[26] = biological target: Phosphatidylinositol 3-kinase C2 domain-containing subunit gamma (Homo sapiens) (UniProt O75747); test: PI3KC2g(h) Kinase panel; settings: Compound concentration 1.0 uM, tested as the 2H-labelled form
[27] = biological target: MAP kinase-interacting serine/threonine-protein kinase 2 (Homo sapiens) (UniProt Q9HBH9); test: Mnk2(h) Kinase panel; settings: Compound concentration 1.0 uM, tested as the 2H-labelled form
[28] = biological target: Serine/threonine-protein kinase pim-3 (Homo sapiens) (UniProt Q86V86); test: Pim-3(h) Kinase panel; settings: Compound concentration 1.0 uM, tested as the 2H-labelled form
[29] = biological target: Inhibitor of nuclear factor kappa-B kinase subunit epsilon (Homo sapiens) (UniProt Q14164); test: IKKepsilon(h) Kinase panel; settings: Compound concentration 1.0 uM, tested as the 2H-labelled form
[30] = biological target: Histamine H4 receptor (Homo sapiens) (UniProt Q9H3N8); settings: Compound concentration 10.0 uM, tested as the 2H-labelled form
[31] = biological target: Mitogen-activated protein kinase 11 (Homo sapiens, UniProt Q15759); test: SAPK2b(h) Kinase panel; settings: Compound concentration 1.0 uM, tested as the 2H-labelled form
[32] = biological target: Serine/threonine-protein kinase MAK (Homo sapiens) (UniProt P20794); test: MAK(h) Kinase panel; settings: Compound concentration 1.0 uM, tested as the 2H-labelled form
[33] = biological target: Myosin-IIIb (Homo sapiens) (UniProt Q8WXR4); test: MYO3B(h) Kinase panel; settings: Compound concentration 1.0 uM, tested as the 2H-labelled form
[34] = biological target: Casein kinase I isoform gamma-3 (Homo sapiens) (UniProt Q9Y6M4); test: CK1gamma3(h) Kinase panel; settings: Compound concentration 1.0 uM, tested as the 2H-labelled form
[35] = biological target: Tyrosine-protein kinase HCK (Homo sapiens) (UniProt P08631); test: Hck(h) activated Kinase panel; settings: Compound concentration 1.0 uM, tested as the 2H-labelled form
[36] = biological target: Ephrin type-A receptor 5 (Homo sapiens) (UniProt P54756); test: EphA5(h) Kinase panel; settings: Compound concentration 1.0 uM, tested as the 2H-labelled form
[37] = biological target: LIM domain kinase 1 (Homo sapiens) (UniProt P53667); test: LIMK1(h) Kinase panel; settings: Compound concentration 1.0 uM, tested as the 2H-labelled form
[38] = biological target: Serine/threonine-protein kinase WNK2 (Homo sapiens) (UniProt Q9Y3S1); test: WNK2(h) Kinase panel; settings: Compound concentration 1.0 uM, tested as the 2H-labelled form
[39] = biological target: MAPK/MAK/MRK overlapping kinase (Homo sapiens) (UniProt Q9UQ07); test: MOK(h) Kinase panel; settings: Compound concentration 1.0 uM, tested as the 2H-labelled form
[40] = biological target: RAF proto-oncogene serine/threonine-protein kinase (Homo sapiens) (UniProt P04049); test: c-RAF(h) Kinase panel; settings: Compound concentration 1.0 uM, tested as the 2H-labelled form
[41] = biological target: Tyrosine-protein kinase Yes (Homo sapiens) (UniProt P07947); test: Yes(h) Kinase panel; settings: Compound concentration 1.0 uM, tested as the 2H-labelled form
[42] = biological target: Aurora kinase C (Homo sapiens) (UniProt Q9UQB9); test: Aurora-C(h) Kinase panel; settings: Compound concentration 1.0 uM, tested as the 2H-labelled form
[43] = biological target: Serine/threonine-protein kinase 32A (Homo sapiens) (UniProt Q8WU08); test: STK32A(h) Kinase panel; settings: Compound concentration 1.0 uM, tested as the 2H-labelled form
[44] = biological target: Proto-oncogene tyrosine-protein kinase receptor Ret (Homo sapiens) (UniProt P07949); test: Ret(h) Kinase panel; settings: Compound concentration 1.0 uM, tested as the 2H-labelled form
[45] = biological target: Calcium/calmodulin-dependent protein kinase type II subunit beta (Homo sapiens) (UniProt Q13554); test: CaMKIIbeta(h) Kinase panel; settings: Compound concentration 1.0 uM, tested as the 2H-labelled form
[46] = biological target: 5-hydroxytryptamine receptor 1A (Homo sapiens) (UniProt P08908); settings: Compound concentration 10.0 uM, tested as the 2H-labelled form
[47] = biological target: cGMP-dependent protein kinase 1 (Homo sapiens) (UniProt Q13976); test: PKG1alpha (h) Kinase panel; settings: Compound concentration 1.0 uM, tested as the 2H-labelled form
[48] = biological target: Serine/threonine-protein kinase LATS2 (Homo sapiens) (UniProt Q9NRM7); test: LATS2(h) Kinase panel; settings: Compound concentration 1.0 uM, tested as the 2H-labelled form
[49] = biological target: Serine/threonine-protein kinase Sgk2 (Homo sapiens) (UniProt Q9HBY8); test: SGK2(h) Kinase panel; settings: Compound concentration 1.0 uM, tested as the 2H-labelled form
[50] = biological target: 3-phosphoinositide-dependent protein kinase 1 (Homo sapiens) (UniProt O15530); test: PDK1(h) Kinase panel; settings: Compound concentration 1.0 uM, tested as the 2H-labelled form

Chain of Aurora kinase C (Homo sapiens) (Q9UQB9 whole entry): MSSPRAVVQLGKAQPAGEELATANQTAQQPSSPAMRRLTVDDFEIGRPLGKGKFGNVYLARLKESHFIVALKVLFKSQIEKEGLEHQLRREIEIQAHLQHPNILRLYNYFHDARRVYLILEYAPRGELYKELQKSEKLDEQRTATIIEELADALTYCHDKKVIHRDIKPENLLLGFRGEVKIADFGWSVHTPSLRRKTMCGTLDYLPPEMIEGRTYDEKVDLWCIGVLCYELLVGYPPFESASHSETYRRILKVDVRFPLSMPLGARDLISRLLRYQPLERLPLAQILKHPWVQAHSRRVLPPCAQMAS
Chain of Serine/threonine-protein kinase SIK2 (Homo sapiens) (Q9H0K1 whole entry, looked up): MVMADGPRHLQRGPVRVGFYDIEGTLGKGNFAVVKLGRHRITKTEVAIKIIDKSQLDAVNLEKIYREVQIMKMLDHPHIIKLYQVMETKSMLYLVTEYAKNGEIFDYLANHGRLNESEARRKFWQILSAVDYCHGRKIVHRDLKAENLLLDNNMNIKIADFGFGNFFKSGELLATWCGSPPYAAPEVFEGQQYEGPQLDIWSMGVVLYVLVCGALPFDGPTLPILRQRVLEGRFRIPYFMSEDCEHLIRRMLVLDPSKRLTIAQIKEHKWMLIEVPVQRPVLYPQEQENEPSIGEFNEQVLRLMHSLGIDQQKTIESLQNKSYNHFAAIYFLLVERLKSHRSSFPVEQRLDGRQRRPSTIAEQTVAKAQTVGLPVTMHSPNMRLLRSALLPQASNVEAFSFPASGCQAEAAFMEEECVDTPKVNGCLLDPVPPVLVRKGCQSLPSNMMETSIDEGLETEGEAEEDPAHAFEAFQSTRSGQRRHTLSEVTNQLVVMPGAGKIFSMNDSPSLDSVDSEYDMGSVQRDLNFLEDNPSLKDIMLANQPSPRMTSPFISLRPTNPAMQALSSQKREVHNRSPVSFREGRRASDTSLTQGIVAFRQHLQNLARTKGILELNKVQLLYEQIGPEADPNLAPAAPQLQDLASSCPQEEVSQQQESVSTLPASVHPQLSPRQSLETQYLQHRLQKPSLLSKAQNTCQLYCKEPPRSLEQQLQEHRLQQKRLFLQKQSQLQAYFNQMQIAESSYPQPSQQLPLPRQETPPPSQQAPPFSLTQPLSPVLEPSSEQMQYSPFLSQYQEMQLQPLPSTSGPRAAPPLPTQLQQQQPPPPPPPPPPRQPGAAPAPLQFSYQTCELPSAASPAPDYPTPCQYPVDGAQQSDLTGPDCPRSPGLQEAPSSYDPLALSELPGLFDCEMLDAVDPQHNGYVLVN
Chain of Serine/threonine-protein kinase 32A (Homo sapiens) (Q8WU08 whole entry): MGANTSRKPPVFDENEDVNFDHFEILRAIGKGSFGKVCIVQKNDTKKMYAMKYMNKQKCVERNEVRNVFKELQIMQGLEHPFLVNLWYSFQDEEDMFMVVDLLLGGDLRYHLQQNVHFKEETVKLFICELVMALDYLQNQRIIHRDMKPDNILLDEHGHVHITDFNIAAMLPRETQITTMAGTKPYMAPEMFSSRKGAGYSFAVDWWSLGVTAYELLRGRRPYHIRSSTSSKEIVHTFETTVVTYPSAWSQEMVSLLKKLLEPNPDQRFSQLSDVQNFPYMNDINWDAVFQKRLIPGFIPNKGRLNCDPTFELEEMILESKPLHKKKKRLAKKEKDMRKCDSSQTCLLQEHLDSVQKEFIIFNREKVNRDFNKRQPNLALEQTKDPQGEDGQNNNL
Chain of MAP/microtubule affinity-regulating kinase 4 (Homo sapiens) (Q96L34 whole entry): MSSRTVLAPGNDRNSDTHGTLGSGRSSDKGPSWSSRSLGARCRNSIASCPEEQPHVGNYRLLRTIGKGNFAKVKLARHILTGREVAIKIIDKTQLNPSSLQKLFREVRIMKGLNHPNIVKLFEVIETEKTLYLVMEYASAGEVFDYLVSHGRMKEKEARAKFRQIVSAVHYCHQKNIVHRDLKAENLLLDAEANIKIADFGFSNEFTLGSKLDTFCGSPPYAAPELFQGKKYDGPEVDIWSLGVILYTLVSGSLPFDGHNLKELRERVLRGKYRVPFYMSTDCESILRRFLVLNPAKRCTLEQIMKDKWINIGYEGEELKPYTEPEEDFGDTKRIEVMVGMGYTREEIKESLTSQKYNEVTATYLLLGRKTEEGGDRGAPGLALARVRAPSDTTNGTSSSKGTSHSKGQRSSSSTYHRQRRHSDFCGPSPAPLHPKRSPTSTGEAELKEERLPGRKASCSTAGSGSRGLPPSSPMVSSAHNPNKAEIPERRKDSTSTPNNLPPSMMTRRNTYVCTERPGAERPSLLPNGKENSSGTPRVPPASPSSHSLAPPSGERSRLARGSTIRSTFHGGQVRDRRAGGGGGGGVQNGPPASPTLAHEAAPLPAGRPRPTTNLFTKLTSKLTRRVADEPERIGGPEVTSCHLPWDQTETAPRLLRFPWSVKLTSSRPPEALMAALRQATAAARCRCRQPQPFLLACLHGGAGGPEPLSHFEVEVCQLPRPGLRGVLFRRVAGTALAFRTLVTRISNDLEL
Chain of G protein-coupled receptor kinase 3 (Homo sapiens) (P35626 whole entry, canonical isoform): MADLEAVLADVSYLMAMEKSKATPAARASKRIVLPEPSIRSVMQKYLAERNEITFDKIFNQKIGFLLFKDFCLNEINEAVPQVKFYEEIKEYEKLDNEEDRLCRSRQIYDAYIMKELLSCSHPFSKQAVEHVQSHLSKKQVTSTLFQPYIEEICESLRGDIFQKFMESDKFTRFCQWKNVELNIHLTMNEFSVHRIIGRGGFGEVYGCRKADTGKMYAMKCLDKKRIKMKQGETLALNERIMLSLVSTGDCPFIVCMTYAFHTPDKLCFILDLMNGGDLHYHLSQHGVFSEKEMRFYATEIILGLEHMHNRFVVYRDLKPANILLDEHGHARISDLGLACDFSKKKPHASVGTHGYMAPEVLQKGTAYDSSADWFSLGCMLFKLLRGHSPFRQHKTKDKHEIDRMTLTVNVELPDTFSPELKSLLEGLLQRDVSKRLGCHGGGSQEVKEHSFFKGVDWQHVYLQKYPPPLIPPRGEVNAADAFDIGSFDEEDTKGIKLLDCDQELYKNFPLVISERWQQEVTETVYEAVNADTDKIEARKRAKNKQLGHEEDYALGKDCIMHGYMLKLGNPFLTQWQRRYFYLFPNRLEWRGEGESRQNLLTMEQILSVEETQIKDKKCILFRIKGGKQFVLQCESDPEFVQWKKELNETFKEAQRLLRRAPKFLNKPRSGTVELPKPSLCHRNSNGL
Chain of 5'-AMP-activated protein kinase catalytic subunit alpha-1 (Homo sapiens) (Q13131 whole entry, looked up): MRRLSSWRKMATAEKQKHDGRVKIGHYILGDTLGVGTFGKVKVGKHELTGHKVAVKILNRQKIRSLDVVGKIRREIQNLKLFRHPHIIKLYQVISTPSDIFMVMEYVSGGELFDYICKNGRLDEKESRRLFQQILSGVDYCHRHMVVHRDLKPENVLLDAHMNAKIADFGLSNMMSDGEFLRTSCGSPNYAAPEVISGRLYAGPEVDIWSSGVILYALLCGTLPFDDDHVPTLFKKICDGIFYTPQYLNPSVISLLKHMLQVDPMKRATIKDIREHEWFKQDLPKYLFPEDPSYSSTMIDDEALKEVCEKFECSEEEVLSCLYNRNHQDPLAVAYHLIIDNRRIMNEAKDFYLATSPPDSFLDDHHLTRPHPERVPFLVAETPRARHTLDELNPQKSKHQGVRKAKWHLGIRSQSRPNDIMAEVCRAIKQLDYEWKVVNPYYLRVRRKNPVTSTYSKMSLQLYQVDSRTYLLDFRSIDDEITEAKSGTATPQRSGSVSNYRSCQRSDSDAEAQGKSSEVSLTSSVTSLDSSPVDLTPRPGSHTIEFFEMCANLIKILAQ
Chain of Tyrosine-protein kinase HCK (Homo sapiens) (P08631 2-526 limits assumed): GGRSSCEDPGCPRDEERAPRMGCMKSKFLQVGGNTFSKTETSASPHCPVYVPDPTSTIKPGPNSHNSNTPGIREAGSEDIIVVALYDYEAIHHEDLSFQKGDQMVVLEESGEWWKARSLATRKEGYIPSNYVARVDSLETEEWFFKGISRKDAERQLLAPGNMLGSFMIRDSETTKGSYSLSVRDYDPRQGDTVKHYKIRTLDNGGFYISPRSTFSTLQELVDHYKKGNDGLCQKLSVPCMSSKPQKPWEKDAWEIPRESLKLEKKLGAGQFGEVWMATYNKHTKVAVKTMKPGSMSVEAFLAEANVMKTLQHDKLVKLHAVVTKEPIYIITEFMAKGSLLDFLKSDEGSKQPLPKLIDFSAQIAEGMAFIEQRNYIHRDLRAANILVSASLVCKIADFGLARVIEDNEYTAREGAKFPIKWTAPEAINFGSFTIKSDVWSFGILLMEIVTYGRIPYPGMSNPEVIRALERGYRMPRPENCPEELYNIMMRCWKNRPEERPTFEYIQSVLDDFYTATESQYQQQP
Chain of Serine/threonine-protein kinase 32C (Homo sapiens) (Q86UX6 whole entry): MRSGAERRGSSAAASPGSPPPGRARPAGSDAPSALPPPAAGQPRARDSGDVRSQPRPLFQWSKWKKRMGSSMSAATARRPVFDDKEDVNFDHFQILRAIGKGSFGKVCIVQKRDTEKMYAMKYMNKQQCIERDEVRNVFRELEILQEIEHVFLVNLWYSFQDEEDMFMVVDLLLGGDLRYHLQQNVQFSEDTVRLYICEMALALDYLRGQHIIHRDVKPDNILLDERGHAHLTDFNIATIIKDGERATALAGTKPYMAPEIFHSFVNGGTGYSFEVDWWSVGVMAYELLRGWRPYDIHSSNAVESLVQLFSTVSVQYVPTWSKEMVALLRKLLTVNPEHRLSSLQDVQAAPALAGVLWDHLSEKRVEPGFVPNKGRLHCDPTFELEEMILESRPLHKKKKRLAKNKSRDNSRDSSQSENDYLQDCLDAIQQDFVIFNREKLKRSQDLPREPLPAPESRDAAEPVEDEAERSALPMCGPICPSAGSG

inhibition [1]: -10% | inhibition [2]: -7% | inhibition [3]: 6% | inhibition [4]: 0% | inhibition [5]: 10% | inhibition [6]: 0% | inhibition [7]: 0% | inhibition [8]: 5% | inhibition [9]: 11% | inhibition [10]: 20% | inhibition [11]: 0% | inhibition [12]: 4% | inhibition [13]: -3% | inhibition [14]: -2% | inhibition [15]: 9% | inhibition [16]: -7% | inhibition [17]: 0% | inhibition [18]: 4% | inhibition [19]: -3% | inhibition [20]: 5% | inhibition [21]: 17% | inhibition [22]: 16% | inhibition [23]: 28% | inhibition [24]: 15% | inhibition [25]: 2% | inhibition [26]: -4% | inhibition [27]: 20% | inhibition [28]: 4% | inhibition [29]: -1% | inhibition [30]: 24.7% | inhibition [31]: -3% | inhibition [32]: 10% | inhibition [33]: 12% | inhibition [34]: -2% | inhibition [35]: 9% | inhibition [36]: -3% | inhibition [37]: -9% | inhibition [38]: 8% | inhibition [39]: -9% | inhibition [40]: 12% | inhibition [41]: -6% | inhibition [42]: 7% | inhibition [43]: 9% | inhibition [44]: 14% | inhibition [45]: 18% | inhibition [46]: 1.3% | inhibition [47]: -9% | inhibition [48]: 12% | inhibition [49]: 9% | inhibition [50]: 9%
SMILES: CC1(C)Cn2nc(-c3ccc(F)cn3)c(-c3ccnc4[nH]ncc34)c2CO1
